# Reference: patent US11419826B2, “Surface-modified mesoporous silica nanoparticle for blood-brain barrier penetration,tumor targeting and cancer metastasis treatment, methods of production and uses thereof” (NANO TARGETING & THERAPY BIOPHARMA INC., priority 2019, dated 2022)
# Experiments:
# [1] = system: U87-LUC glioma cells; test: U87-LUC orthotopic glioma xenograft mouse model; assay type: in vivo; details: Dox 10 mg/kg i.v. every 4 days for 3 times
# Experimental: U87-LUC glioma cells were cultured at 37° C. in a humidified 5% CO2 atmosphere in minimum essential median (MEM) supplemented with 10% fetal bovine serum and 1% penicillin/streptomycin (Invitrogen). Cells were harvested by trypsinization, washed once with phosphate-buffered saline (PBS), and re-suspended (1×10^5 cell/μL) in MEM for subsequent implantation into the striatum of mouse brains. Pathogen-free male NU/NU mice (5 to 7 weeks old) were purchased from BioLASCO (Taiwan). Mice were housed and maintained in a controlled environment and all procedures were performed in accordance with the experimental animal care guidelines of the Animal Committee of Chang Gung University. To implant U87-LUC tumor cells, animals were anesthetized with 2% isoflurane gas and immobilized on a stereotactic frame. […] The growth of the brain tumor was monitored by IVIS and MRI.
# Dox is a well-known anti-cancer drug approved for treatment of multiple cancers. […] To evaluate the efficacy of Dox@MSN-PEG+TA anti-brain tumor in vivo, the U87-LUC brain cells were implanted orthotopically into nude mice to serve as the U87-LUC xenograft mouse model; U87-LUC cells can express luciferase for quantification of tumor cells in vivo. […] The distribution of MSN-PEG+TA and Dox@MSN-PEG+TA in brain tissue and tumor were assessed from the tumor sections from nanoparticle treated mice. […]
# [2] = Pharmacokinetics and quantification of Dox accumulation in plasma and brain; details: single i.v. dose, Dox 7.5 mg/kg; after 15 minutes
# Experimental: Healthy balb/c mice were single dose intravenously injected with Dox or Dox@NTT0_18 at 7.5 mg/kg. To determine the Dox concentration in plasma and brain, blood samples were taken at 15, 30, 60, 180, 360 and 1440 minutes after injection, and after the blood samples were taken, each animal was sacrificed and perfused with PBS to obtain the brain. Dox was extracted from the samples (plasma and brain respectively) for the determination of dox concentration with a spectrophotometer.
# Mice received a single dose of Dox or Dox@NTT0_18 (MSN-PEG+TA-loaded Dox) through intravenous injection (all at Dox dose 7.5 mg/kg). To determine the Dox concentration in plasma and brain, blood samples were taken at 15, 30, 60, 180, 360 and 1440 minutes after injection and animals were sacrificed and perfused with PBS at each time point. Dox was extracted from plasma and brain and the Dox concentration was measured using a spectrophotometer. The concentration versus time curves of Dox in plasma with and without MSN-PEG+TA encapsulated was also established.
smiles,measurement,setting,value
"COc1cccc2c1C(=O)c1c(O)c3c(c(O)c1C2=O)C[C@@](O)(C(=O)CO)C[C@@H]3O[C@H]1C[C@H](N)[C@H](O)[C@H](C)O1 [Dox, doxorubicin]",toxicity / body weight of treated mice,[1],causes death of the host
same,tumor size,[1]; during the treatment period,shrunk during the treatment period
same,Dox concentration in plasma,[2],lower than 0.2 μg/mL
